The text below walks through data of ChEMBL document CHEMBL1201862, “PubChem BioAssay data set” (2004).

Test systems include HCT-15; HOP-62; HT-29; IGROV-1; K562; M19-MEL; NCI-H226; NCI-H23; OVCAR-3; OVCAR-4; OVCAR-8; SF-539; SK-MEL-2; SNB-19; TK-10; UACC-257; OVCAR-5.
Holding throughout (experiment): NCI-60 cell line screen, 48 h

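Grown in 96-well plates, cells were treated for 48 hours with each compound at five concentrations. Insufficient inhibition: endpoint recorded as highest concentration tested. Here, GI50 denotes the concentration required for 50% inhibition of growth.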 Active and inactive are the calls of the source. No stated cut-off is given here; in the data, active = GI50 up to about 1.1 µM and inactive = higher.

`O=C(O)c1cc(Cl)cc(NC(=O)C(Cl)Cl)c1Cl`: the GI50 is > 100 µM with HCT-15; > 100 µM (inactive) with HOP-62; > 100 µM (inactive) in the assay with HT-29; > 100 µM (inactive) with IGROV-1; > 100 µM (inactive) in the assay with K562; > 100 µM (inactive) with M19-MEL. Besides, the GI50 with NCI-H226, in the assay with NCI-H23, with OVCAR-3, in the assay on OVCAR-4, in the assay with OVCAR-8 and with SF-539 was > 100 µM (inactive) each time. In addition, the GI50 with SK-MEL-2, in the assay on SNB-19, in the assay on TK-10 and with UACC-257 was > 100 µM (inactive) each time.

With `O=C(CC1(O)C(=O)Nc2ccccc21)c1ccc(F)cc1` (stereo not drawn), the GI50 is > 100 µM in the assay on HCT-15; > 100 µM (inactive) in the assay with HT-29; > 100 µM (inactive) in the assay on IGROV-1; > 100 µM (inactive) in the assay on K562; > 100 µM (inactive) in the assay with M19-MEL; > 100 µM (inactive) in the assay with NCI-H226. The GI50 with NCI-H23, in the assay with OVCAR-3, in the assay on OVCAR-4, with OVCAR-5, in the assay with OVCAR-8 and in the assay with SF-539 was > 100 µM (inactive) in each case. Moreover, the GI50 with SK-MEL-2, with SNB-19, in the assay with TK-10 and with UACC-257 was > 100 µM (inactive) each time.

On to `Nc1ncn(C2C=C(CO)C(O)C2O)c(=O)n1` (stereo not drawn), for which the GI50 is 54.2 µM in the assay on HCT-15; 35.1 µM (inactive) in the assay with HOP-62; 84.5 µM (inactive) with IGROV-1; 41.6 µM (inactive) in the assay on K562; > 100 µM (inactive) with M19-MEL; > 100 µM (inactive) in the assay with NCI-H226. In addition, the GI50 is > 100 µM (inactive) in the assay on OVCAR-3; 85.9 µM (inactive) in the assay on OVCAR-4; 45.5 µM (inactive) with OVCAR-8; 63.5 µM (inactive) in the assay with SF-539; 94.4 µM (inactive) with SK-MEL-2; > 100 µM (inactive) in the assay on SNB-19. Besides, the GI50 with TK-10 and in the assay on UACC-257 was > 100 µM (inactive) throughout.

Take `S=C1CNC(=S)CN1`: the GI50 in the assay on HCT-15 was > 100 µM; in the assay on HOP-62 it was > 100 µM (inactive); in the assay with HT-29, > 100 µM (inactive); in the assay on IGROV-1, > 100 µM (inactive); in the assay with K562 it was > 100 µM (inactive); in the assay on M19-MEL, > 100 µM (inactive). The GI50 in the assay on NCI-H226, in the assay on OVCAR-3, in the assay on OVCAR-4, in the assay on OVCAR-5, in the assay with OVCAR-8 and in the assay with SF-539 was > 100 µM (inactive) each time. Also, the GI50 in the assay on SK-MEL-2, with SNB-19, in the assay on TK-10 and in the assay on UACC-257 was > 100 µM (inactive) in each case.

Take `O=C1NC(=O)C2C1C1C=C3c4ccccc4N(c4ccccc4)C32[C@H]2C(=O)NC(=O)[C@@H]12` (stereo partly drawn): the GI50 with HCT-15 is > 100 µM; with HOP-62, > 100 µM (inactive); in the assay with HT-29, > 100 µM (inactive); with IGROV-1, > 100 µM (inactive); in the assay with K562, > 100 µM (inactive); with M19-MEL, > 100 µM (inactive). Besides, the GI50 in the assay with NCI-H226, with OVCAR-3, in the assay on OVCAR-4, with OVCAR-5, in the assay with OVCAR-8 and in the assay with SF-539 was > 100 µM (inactive) throughout. The GI50 in the assay on SK-MEL-2, in the assay on SNB-19, in the assay on TK-10 and in the assay with UACC-257 was > 100 µM (inactive) in each case.
